Measured values: patent publication US12435059B2, “AMP-activated protein kinase inhibitors and methods of making and using the same” (The Regents of the University of Colorado, priority 2019, dated 2025)
Like-named read-outs stand apart in the source and are kept apart here.

Experiments:
Assay in all cases: biochemical
Type in all cases: binding
[1] = target: 468 kinases (Homo sapiens, UniProt Q16832); conditions: DDR2; read-out: % Inhibition @ 100 nM
[2] = target: 468 kinases (Homo sapiens, UniProt Q5S007); conditions: LRRK2; read-out: % Inhibition @ 100 nM
[3] = target: 468 kinases (Homo sapiens, UniProt P42338); conditions: PIK3CB; read-out: % Inhibition @ 100 nM
[4] = target: 468 kinases (Homo sapiens, UniProt Q9Y2K2); conditions: QSK; read-out: % Inhibition @ 100 nM
[5] = target: 468 kinases (Homo sapiens, UniProt Q04771); conditions: ACVR1; read-out: % Inhibition @ 100 nM
[6] = target: 468 kinases (Homo sapiens, UniProt P07332); conditions: FES; read-out: % Inhibition @ 100 nM
[7] = target: 468 kinases (Homo sapiens, UniProt P07947); conditions: YES; read-out: % Inhibition @ 100 nM
[8] = target: 468 kinases (Homo sapiens, UniProt Q9H4B4); conditions: PLK3; read-out: % Inhibition @ 100 nM
[9] = target: 468 kinases (Homo sapiens, UniProt Q99755); conditions: PIP5K1A; read-out: % Inhibition @ 100 nM
[10] = target: 468 kinases (Homo sapiens, UniProt Q9P2K8, S808G); conditions: GCN2(Kin.Dom.2,S808G); read-out: % Inhibition @ 100 nM
[11] = target: 468 kinases (Homo sapiens, UniProt P43405); conditions: SYK; read-out: % Inhibition @ 100 nM
[12] = target: 468 kinases (Homo sapiens, UniProt Q9UM73); conditions: ALK; read-out: % Inhibition @ 100 nM
[13] = target: 468 kinases (Homo sapiens, UniProt O76039); conditions: CDKL5; read-out: % Inhibition @ 100 nM
[14] = target: 468 kinases (Homo sapiens, UniProt Q7L7X3); conditions: TAOK1; read-out: % Inhibition @ 100 nM
[15] = target: 468 kinases (Homo sapiens, UniProt Q96NX5); conditions: CAMK1G; read-out: % Inhibition @ 100 nM
[16] = target: 468 kinases (Homo sapiens, UniProt Q13164); conditions: ERK5; read-out: % Inhibition @ 100 nM
[17] = target: 468 kinases (Homo sapiens, UniProt Q9NRM7); conditions: LATS2; read-out: % Inhibition @ 100 nM
[18] = target: 468 kinases (Homo sapiens, UniProt P29597); conditions: read-out: % Inhibition @ 100 nM
[19] = target: 468 kinases (Homo sapiens, UniProt Q16620); conditions: TRKB; read-out: % Inhibition @ 100 nM
[20] = target: 468 kinases (Homo sapiens, UniProt Q86Y07); conditions: VRK2; read-out: % Inhibition @ 100 nM
[21] = target: 468 kinases (Homo sapiens, UniProt Q8N5S9); conditions: CAMKK1; read-out: % Inhibition @ 100 nM
[22] = target: 468 kinases (Homo sapiens, UniProt Q9Y5S2); conditions: MRCKB; read-out: % Inhibition @ 100 nM
[23] = target: 468 kinases (Homo sapiens, UniProt P42336, H1047Y); conditions: PIK3CA(H1047Y); read-out: % Inhibition @ 100 nM
[24] = target: 468 kinases (Homo sapiens, UniProt P10721, D816H); conditions: KIT(D816H); read-out: % Inhibition @ 100 nM
[25] = target: 468 kinases (Homo sapiens, UniProt Q02750); conditions: MEK1; read-out: % Inhibition @ 100 nM
[26] = target: 468 kinases (Homo sapiens, UniProt P42336, E542K); conditions: PIK3CA(E542K); read-out: % Inhibition @ 100 nM
[27] = target: 468 kinases (Homo sapiens, UniProt P20794); conditions: MAK; read-out: % Inhibition @ 100 nM
[28] = target: 468 kinases (Homo sapiens, UniProt O15530); conditions: PDPK1; read-out: % Inhibition @ 100 nM
[29] = target: 468 kinases (Homo sapiens, UniProt Q09013); conditions: DMPK; read-out: % Inhibition @ 100 nM
[30] = target: 468 kinases (Homo sapiens, UniProt Q9HBH9); conditions: MKNK2; read-out: % Inhibition @ 100 nM
[31] = target: 468 kinases (Plasmodium falciparum, UniProt P62344); conditions: PFCDPK1 (P.falciparum); read-out: % Inhibition @ 100 nM
[32] = target: 468 kinases (Homo sapiens, UniProt Q9BXA7); conditions: TSSK1B; read-out: % Inhibition @ 100 nM
[33] = target: 468 kinases (Homo sapiens, UniProt P51817); conditions: PRKX; read-out: % Inhibition @ 100 nM

Compound | inhibition at 0.1 µM [1] [%] | inhibition at 0.1 µM [2] [%] | inhibition at 0.1 µM [3] [%] | inhibition at 0.1 µM [4] [%] | inhibition at 0.1 µM [5] [%] | inhibition at 0.1 µM [6] [%] | inhibition at 0.1 µM [7] [%] | inhibition at 0.1 µM [8] [%] | inhibition at 0.1 µM [9] [%] | inhibition at 0.1 µM [10] [%] | inhibition at 0.1 µM [11] [%] | inhibition at 0.1 µM [12] [%] | inhibition at 0.1 µM [13] [%] | inhibition at 0.1 µM [14] [%] | inhibition at 0.1 µM [15] [%] | inhibition at 0.1 µM [16] [%] | inhibition at 0.1 µM [17] [%] | inhibition at 0.1 µM ([18]; TYK2(JH1domain-catalytic)) [%] | inhibition at 0.1 µM ([18]; TYK2(JH2domain-pseudokinase)) [%] | inhibition at 0.1 µM [19] [%] | other results
CCN(CC)CCNC(=O)c1c(C)[nH]c(/C=C2\C(=O)Nc3ccc(CCO)cc32)c1C [Compound No. 10, (Z)—N-(2-(Diethylamino)ethyl)-5-((5-(2-hydroxyethyl)-2-oxoindolin-3-ylidene)methyl)-2,4-dimethyl-1H-pyrrole-3-carboxamide] | 12 | 96.5 | 0 | 0 | 0 | 20 | 13 | 4 | 98 | 28 | 16 | 29 | 0 | 22 | 0 | 6 | 4 | 1 | 0 | 61 | inhibition at 0.1 µM [20]: 0%; inhibition at 0.1 µM [21]: 15%; inhibition at 0.1 µM [22]: 0%; inhibition at 0.1 µM [23]: 4%; inhibition at 0.1 µM [24]: 6%; inhibition at 0.1 µM [25]: 64%; inhibition at 0.1 µM [26]: 10%; inhibition at 0.1 µM [27]: 0%; inhibition at 0.1 µM [28]: 11%; inhibition at 0.1 µM [29]: 0%; inhibition at 0.1 µM [30]: 0%; inhibition at 0.1 µM [31]: 0%; inhibition at 0.1 µM [32]: 0%; inhibition at 0.1 µM [33]: 0%
CCN(CC)CCNC(=O)c1c(C)[nH]c(/C=C2\C(=O)Nc3ccc(CCC(N)=O)cc32)c1C [Compound No. 16, (Z)-5-((5-(3-Amino-3-oxopropyl)-2-oxoindolin-3-ylidene)methyl)-N-(2-(diethylamino)ethyl)-2,4-dimethyl-1H-pyrrole-3-carboxamide] | 27 | 94 | 3 | 0 | 18 | 0 | 24 | 16 | 91.1 | 0 | 0 | 54 | 5 | 53 | 37 | 100 | 13 | 33 | 39 | 83 | inhibition at 0.1 µM [20]: 39%; inhibition at 0.1 µM [21]: 28%; inhibition at 0.1 µM [22]: 15%; inhibition at 0.1 µM [23]: 28%; inhibition at 0.1 µM [24]: 33%; inhibition at 0.1 µM [25]: 56%; inhibition at 0.1 µM [26]: 26%; inhibition at 0.1 µM [27]: 4%; inhibition at 0.1 µM [28]: 3%; inhibition at 0.1 µM [29]: 11%; inhibition at 0.1 µM [30]: 52%; inhibition at 0.1 µM [31]: 14%; inhibition at 0.1 µM [32]: 4%; inhibition at 0.1 µM [33]: 9%
